Measurements as given in US12492236B2, “Fusion proteins for the treatment of cardiometabolic diseases” (Shattuck Labs, Inc., priority 2022, dated 2025).

Legend:
[1] = tested on: rat insulinoma INS-1 cells; experiment: in vitro glucose-stimulated insulin secretion (GSIS) in INS-1 cells; assay type: cell-based; conditions: 1 hour glucose, then 2 hour incubation, ELISA, FIG. 4B
Description: X is a known inducer of GSIS.

[2] = tested on: HFD-fed mice (Male C57BL/6); experiment: glucose tolerance test (GTT) model in HFD-fed mice; assay type: in vivo; conditions: for serum insulin time course following glucose administration: FIG. 7C; for serum glucose time course following glucose administration: i.v. treatment, 18 hours fast, 2 g/kg glucose, versus PBS control (200 to about 800 mg/dl), FIG. 7A
Procedure: Cages were changed once, then changed once a week.
The mice administered the above treatment by i.v. injections. The mice were then fasted for 18 hours and administered a dose of 2 g/kg glucose by i.v. injections. Blood samples were drawn by tail clip bleeding at 15, 30 and 60 minutes post dosing and cardiac bleeding was used at 2 hours after glucose injection as end-point.

[3] = tested on: HFD-fed mice (Male C57BL/6); experiment: longer-term obesity model in HFD-fed mice; conditions: for blood glucose levels: Days 0, 1, 10 and 15, compared to the untreated mice, FIG. 8E; for liver histology: hepatocellular ballooning and steatosis: H&E; for average daily food intake: compared to the untreated mice, FIG. 8D; for liver weight: livers of PBS control mice versus treated mice / subcutaneous white adipose tissue (sWAT) weight: day 19 necropsy; for liver weight: livers of PBS control mice versus treated mice: FIG. 8G; for subcutaneous white adipose tissue (sWAT) weight: versus PBS control, FIG. 8H; for plasma insulin levels on Day 15: one way ANOVA p<0.0001, FIG. 8C right panel; for change in body weight: tail vein dosing Day 0, 4, 7, 10, 14, 18, FIG. 8A
Description: Briefly, mice (Male C57BL/6) were of approximately 13 weeks of age were housed 4 mice per cage. Following 2 weeks of acclimation, mice were introduced to 60% kcal HFD (Research Diets D12492). Cages were changed once, then changed once a week. Weekly body weights and non-fasted blood glucose were collected. […] The longer-term obesity model assesses a number of end points associated with obesity related type 2 diabetes (FIG. 6A).
Mice (Male C57BL/6) were of approximately 13 weeks of age were housed 4 mice per cage. Following 2 weeks of acclimatation, mice were introduced to 60% kcal HFD (Research Diets D12492). Cages were changed once, then changed once a week. Weekly body weights and non-fasted blood glucose were collected.
Mice were injected by tail vein with vehicle or the drugs on Day 0, Day 4, Day 7, Day 10, Day 14, and Day 18. Body weights were measured every 2 days. Change in body weight was calculated and plotted.
Cumulative food intake was measured between day 0 and 3, between day 4 and 7, between day 7 and day 11, and between day 11 and day 14, and represented as average daily food intake. For food consumption, remaining food was weighed on days 3, 8, and 15, and subtracted from the starting weight. This value was then normalized to the number of mice in the cage, and the number of days the mice had access to the food prior to weighing.
Blood glucose levels were measured on Days 0, 1, 10 and 15 and plotted.
On day 19 during terminal necropsy, liver and subcutaneous white adipose tissue were recovered weighed from treated animals.
To further analyze the changes in liver, histopathological analysis was conducted. Briefly, the liver tissue was stained with hematoxylin and eosin (H&E) and evaluated using standard techniques.

GIP receptor (GIPR) = molecular target: T1, GIP receptor (GIPR) (Rattus norvegicus, UniProt P43219); experiment: cAMP-Glo assay in rat insulinoma INS-1 cells harboring a cAMP-luciferase reporter gene; assay type: cell-based; conditions: 1 hour glucose, then 2 hour incubation, FIG. 4A
T1 construct: endogenous in cells; host or cells: rat INS-1 insulinoma cells (with cAMP-luciferase reporter / pGloSensor-22F biosensor)
T1 sequence (P43219 19-455): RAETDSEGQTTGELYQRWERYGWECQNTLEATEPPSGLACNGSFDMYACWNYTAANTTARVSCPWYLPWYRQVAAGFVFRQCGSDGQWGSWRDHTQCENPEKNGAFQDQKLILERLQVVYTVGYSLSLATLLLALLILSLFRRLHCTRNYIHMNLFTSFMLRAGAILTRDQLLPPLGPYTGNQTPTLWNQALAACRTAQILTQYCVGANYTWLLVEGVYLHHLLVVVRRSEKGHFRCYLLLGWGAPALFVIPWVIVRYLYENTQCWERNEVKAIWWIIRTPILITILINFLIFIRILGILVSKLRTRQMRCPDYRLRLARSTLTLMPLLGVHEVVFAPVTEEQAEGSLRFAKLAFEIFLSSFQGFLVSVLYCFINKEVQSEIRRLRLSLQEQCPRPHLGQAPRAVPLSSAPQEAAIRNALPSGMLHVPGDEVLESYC
Description: Rat insulinoma INS-1 cells harboring a cAMP-luciferase reporter gene were used to study the activation of GIPR. Without wishing to be bound by theory, the activation of GIPR leads to temporary depletion of ATP because of consumption of ATP in cyclization reaction to produce cAMP as well as by phosphorylation by protein kinase A of its substrate. Without wishing to be bound by theory, the temporary depletion of ATP leads to an inhibition of luciferase activity, which needs ATP as a substrate.

[4] = molecular target: T2, glucose-dependent insulinotropic polypeptide receptor (GIPR) (Homo sapiens, UniProt P48546); experiment: GeneBLAzer GIPR-CRE-bla HEK293T cell-based reporter assay; conditions: increasing amounts, FIG. 3B
T2 construct: host or cells: HEK293T (GeneBLAzer GIPR-CRE-bla)
T2 sequence (P48546 22-466): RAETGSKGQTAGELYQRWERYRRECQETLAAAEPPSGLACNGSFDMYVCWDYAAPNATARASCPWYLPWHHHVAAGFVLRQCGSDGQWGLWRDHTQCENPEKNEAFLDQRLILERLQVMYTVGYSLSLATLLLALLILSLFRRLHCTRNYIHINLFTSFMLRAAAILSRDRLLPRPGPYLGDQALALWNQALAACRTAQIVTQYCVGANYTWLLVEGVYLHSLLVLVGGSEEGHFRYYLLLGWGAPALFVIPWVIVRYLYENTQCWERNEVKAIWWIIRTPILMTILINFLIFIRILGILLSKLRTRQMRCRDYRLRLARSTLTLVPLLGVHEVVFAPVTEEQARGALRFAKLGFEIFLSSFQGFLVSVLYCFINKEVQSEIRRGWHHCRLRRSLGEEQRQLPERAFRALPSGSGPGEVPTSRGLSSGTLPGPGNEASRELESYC
Procedure: This assay is diagrammatically represented in FIG. 3A. […] In the presence of the β-lactamase LiveBLAzer™ substrate, cells expressing β-lactamase fluoresce blue (460 nm), while those not expressing β-lactamase fluoresce green (530 nm); higher 460/530 ratio indicates the activation of GIPR.
Briefly, GeneBLAzer® GIPR-CRE-bla HEK293T cells were added to wells of black-wall assay plates. […] To each well, LiverBLAzer-FRET B/G substrate mixture was added. The plate was covered with plate sealer and incubated at room temperature for 2 hours in the dark. Fluorescence emission was measured on SpectraMax plate reader at 460 nm and 530 nm with excitation set to 409 nm. After subtraction of background, average value at 460 nm (blue color) was divided by average value at 530 nm (green color) to obtain the 460/530 ratio.

For “GLP-1-Fc-GIP(Ag): GLP-1 fused to GIP agonist peptide (amino acids 1-42) via a hinge-CH2-CH3 Fc domain derived from IgG1; SEQ ID NO: 93”, the “insulin in culture supernatant (GSIS)” value [1] was “stimulated insulin production to a similar, if not greater magnitude than dulaglutide or tirzepatide”, the “serum insulin time course following glucose administration” value [2] was “rapid induction of insulin” and the “serum glucose time course following glucose administration” value [2] was “much smaller increase in serum glucose”. The glucose tolerance ([2]; summary of GTT model) was “improved glucose tolerance”, the blood glucose levels [3] was “decrease in blood glucose” and the “weights of individual mice” value ([3]; FIG. 8B) was “induced weight loss”. For the same molecule, the “liver histology: hepatocellular ballooning and steatosis” value (from here on “liver histology”) ([3]; FIG. 8J) was “a decrease in hepatocellular ballooning and steatosis”, the “plasma insulin levels on Day 1” value ([3]; between 15 and 120 minutes after treatment, one way ANOVA p<0.05, FIG. 8C left panel) was “rapid decrease in insulin levels” and the “average daily food intake” value [3] was “decrease in food intake”. For the same molecule, the “liver weight: livers of PBS control mice versus treated mice” value [3] was “much heavier compared to the mice receiving treatments”, the “subcutaneous white adipose tissue (sWAT) weight” value [3] was “decreased” and the tolerability ([3]; obesity model) was “well tolerated and no overt toxicities were noted”. For the same molecule, the “plasma insulin levels on Day 15” value [3] was “significant decrease in the levels of insulin”, the “decrease in liver collagen staining relative to tirzepatide or dulaglutide” value ([3]; picrosirius red, FIG. 8I) was “greater decrease in collagen staining” and the “liver collagen staining (fibrosis)” value ([3]; picrosirius red, FIG. 8I) was “a decrease in collagen staining”. For the same molecule, the “change in body weight” value [3] was “progressive weight loss”.

tirzepatide [reference compound] was tested, and the “serum insulin time course following glucose administration” value [2] was “rapid induction of insulin”, the “serum glucose time course following glucose administration” value [2] was “much smaller increase in serum glucose” and the “inhibition of luciferase (GIPR activation, cAMP accumulation)” value (GIP receptor (GIPR)) was “dose-dependent and saturable inhibition of luciferase with similar potency”. The blood glucose levels [3] was “decrease in blood glucose”, the “liver histology” value ([3]; FIG. 8J) was “a decrease in hepatocellular ballooning and steatosis” and the “liver histology” value ([3]; higher magnifications, compared to untreated animals, FIG. 8K) was “significant decrease in hepatocellular ballooning and steatosis”. For the same molecule, the “average daily food intake” value [3] was “decrease in food intake”, the “liver weight: livers of PBS control mice versus treated mice” value [3] was “much heavier compared to the mice receiving treatments” and the “subcutaneous white adipose tissue (sWAT) weight” value [3] was “decreased”. The “plasma insulin levels on Day 15” value [3] was “significant decrease in the levels of insulin”, the “liver collagen staining (fibrosis)” value ([3]; picrosirius red, FIG. 8I) was “a decrease in collagen staining” and the “change in body weight” value [3] was “progressive weight loss”. The “460/530 ratio, indicative of the activation of GIPR” value [4] was “dose-dependent and saturable increase in 460/530 ratio”.

B1: GIP(Ag)-Fc-FGF19: GIP fused to FGF19 via a hinge-CH2-CH3 Fc domain derived from IgG1; SEQ ID NO: 88 (protein)
chain: YAEGTFISDYSIAMDKIHQQDFVNWLLAQKGKKNDWKHNITQPCPAPEAAGGPSVFLFPPKPKDTLMISRTPEVTCVVVDVSHEDPEVKFNWYVDGVEVHNAKTKPREEQYNSTYRVVSVLTVLHQDWLNGKEYKCKVSNKALPAPIEKTISKAKGQPREPQVYTLPPSRDELTKNQVSLTCLVKGFYPSDIAVEWESNGQPENNYKTTPPVLDSDGSFFLYSKLTVDKSRWQQGNVFSCSVMHEALHNHYTQKSLSLSPGKIEGRMDRDSSPLVHYGWGDPIRLRHLYTSGPHGLSSCFLRIRADGVVDCARGQSAHSLLEIKAVALRTVAIKGVHSVRYLCMGADGKMQGLLQYSEEDCAFEEEIRPDGYNVYRSEKHRLPVSLSSAKQRQLYKNRGFLPLSHFLPMLPMVPEEPEDLRGHLESDMFSSPLETDSMDPFGLVTGLEAVRSPSFEK
With B1 the “insulin in culture supernatant (GSIS)” value [1] was “stimulated insulin production to a similar, if not greater magnitude than dulaglutide or tirzepatide”, the “inhibition of luciferase (GIPR activation, cAMP accumulation)” value (GIP receptor (GIPR)) was “dose-dependent and saturable inhibition of luciferase with similar potency” and the “460/530 ratio, indicative of the activation of GIPR” value [4] was “dose-dependent and saturable increase in 460/530 ratio”.
